Measurements as given in US20060069132A1, “Azolecarboxamide herbicides” (priority 2004, published 2006).

What was measured:
barnyardgrass [1] = assay: Test A pre-/postemergence herbicide test; format: in vivo, Echinochloa crus-galli
Summary of the method: (§1)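 Greenhouse injury scoring (0–100, complete control = 100) at approximately ten days follows simultaneous pre- and postemergence application. Soil received a directed spray after seeding; seedlings of 2–10 cm at the one- to two-leaf stage were sprayed to runoff.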

large crabgrass [2] = assay: Test A pre-/postemergence herbicide test; format: in vivo, Digitaria sanguinalis
Summary of the method: as §1

giant foxtail [3] = assay: Test A pre-/postemergence herbicide test; format: in vivo, Setaria faberi
Summary of the method: as §1

morningglory [4] = assay: Test A pre-/postemergence herbicide test; format: in vivo, Ipomoea spp.
Summary of the method: as §1

redroot pigweed = assay: Test A pre-/postemergence herbicide test; format: in vivo, Amaranthus retroflexus
Summary of the method: as §1

velvetleaf [5] = assay: Test A pre-/postemergence herbicide test; format: in vivo, Abutilon theophrasti
Summary of the method: as §1

barnyardgrass [6] = assay: Test B pre-/postemergence herbicide test; format: in vivo, Echinochloa crus-galli; settings: for Barnyardgrass plant response rating: postemergence, visual rating, scale 0 (no effect) to 100 (complete control)
Summary of the method: (§2)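 Formulation: non-phytotoxic solvent mix with surfactant. Timing: preemergence on seed and postemergence on 2–18 cm plants, applied concurrently. Readout after 13–15 d greenhouse: visual 0–100 control rating against controls.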

Surinam grass = assay: Test B pre-/postemergence herbicide test; format: in vivo, Urochloa decumbens; settings: for Surinam Grass plant response rating: postemergence, visual rating, scale 0 (no effect) to 100 (complete control)
Summary of the method: (§3)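 Evaluation is visual, comparing treated with control plants on a scale where 0 means no effect and 100 means full control. Treatments were preemergence, or postemergence on seedlings 2–18 cm tall, and held 13–15 days in the greenhouse.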

cocklebur = assay: Test B pre-/postemergence herbicide test; format: in vivo, Xanthium strumarium; settings: for Cocklebur plant response rating: postemergence, visual rating, scale 0 (no effect) to 100 (complete control)
Summary of the method: as §2

corn = assay: Test B pre-/postemergence herbicide test; format: in vivo, Zea mays; settings: for Corn plant response rating: postemergence, visual rating, scale 0 (no effect) to 100 (complete control)
Summary of the method: as §3

large crabgrass [7] = assay: Test B pre-/postemergence herbicide test; format: in vivo, Digitaria sanguinalis; settings: for Crabgrass, Large plant response rating: postemergence, visual rating, scale 0 (no effect) to 100 (complete control)
Summary of the method: as §3

giant foxtail [8] = assay: Test B pre-/postemergence herbicide test; format: in vivo, Setaria faberi; settings: for Foxtail, Giant plant response rating: postemergence, visual rating, scale 0 (no effect) to 100 (complete control)
Summary of the method: as §3

lambsquarters = assay: Test B pre-/postemergence herbicide test; format: in vivo, Chenopodium album; settings: for Lambsquarters plant response rating: postemergence, visual rating, scale 0 (no effect) to 100 (complete control)
Summary of the method: as §3

morningglory [9] = assay: Test B pre-/postemergence herbicide test; format: in vivo, Ipomoea coccinea; settings: for Morningglory plant response rating: postemergence, visual rating, scale 0 (no effect) to 100 (complete control)
Summary of the method: as §2

pigweed = assay: Test B pre-/postemergence herbicide test; format: in vivo, Amaranthus retroflexus; settings: for Pigweed plant response rating: postemergence, visual rating, scale 0 (no effect) to 100 (complete control)
Summary of the method: as §3

rice [10] = assay: Test B pre-/postemergence herbicide test; format: in vivo, Oryza sativa; settings: preemergence
Summary of the method: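 Plants compared with untreated controls 13–15 days post-treatment and given a visual 0–100 injury score. Applications: preemergence to seeds; postemergence at 1- to 4-leaf (2–18 cm); paddy species flooded, 2-leaf stage. Vehicle non-phytotoxic, surfactant included.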

velvetleaf [11] = assay: Test B pre-/postemergence herbicide test; format: in vivo, Abutilon theophrasti; settings: for Velvetleaf plant response rating: postemergence, visual rating, scale 0 (no effect) to 100 (complete control)
Summary of the method: as §3

blackgrass = assay: Test B postemergence herbicide test; format: in vivo, Alopecurus myosuroides; settings: postemergence, visual rating, scale 0 (no effect) to 100 (complete control)
Summary of the method: (§4)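 Scale 0–100: zero equals no visible effect, 100 complete control, judged by eye relative to controls. Timing: 13 to 15 days in greenhouse post-treatment. Growth stage at spraying: two leaves (paddy) or one to four leaves, 2–18 cm (postemergence).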

wheat = assay: Test B postemergence herbicide test; format: in vivo, Triticum aestivum; design: key to Wheat plant response rating: 0 = no effect, 100 = complete control; settings: postemergence, visual rating, scale 0 (no effect) to 100 (complete control)
Summary of the method: (§5)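 Read-out: visual comparison with controls, scored 0 to 100, where 100 means complete control and 0 no effect. Formulated chemicals were applied postemergence to plants 2–18 cm tall (1- to 4-leaf), or to flooded-paddy plants at the 2-leaf stage, then held 13 to 15 days under glass.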

wild oat = assay: Test B postemergence herbicide test; format: in vivo, Avena fatua; settings: postemergence, visual rating, scale 0 (no effect) to 100 (complete control)
Summary of the method: as §5

rice [12] = assay: Test B flooded paddy test; format: in vivo, Oryza sativa; settings: 1000 g ai/ha, visual rating, scale 0 to 100 (0 no effect, 100 complete control), 13 to 15 days
Summary of the method: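 Each value is a visual 0–100 response rating taken against controls 13 to 15 days after treatment in the greenhouse. Plants received formulated chemical postemergence at the 1- to 4-leaf stage or, in flooded paddy, at the 2-leaf stage.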

[13] = tested on: small flower umbrella sedge; assay: Test B flooded paddy test; format: in vivo, Cyperus difformis; settings: 1000 g ai/ha, visual rating, scale 0 to 100 (0 no effect, 100 complete control), 13 to 15 days
Summary of the method: as §4

ducksalad = assay: Test B flooded paddy test; format: in vivo, Heteranthera limosa; settings: 1000 g ai/ha, visual rating, scale 0 to 100 (0 no effect, 100 complete control), 13 to 15 days
Summary of the method: as §4

barnyardgrass [14] = assay: Test B flooded paddy test; format: in vivo, Echinochloa crus-galli; settings: 1000 g ai/ha, visual rating, scale 0 to 100 (0 no effect, 100 complete control), 13 to 15 days
Summary of the method: as §4

[15] = Postemergence, 500 g ai/ha, 0 to 100 scale, 0 no effect, 100 complete control
[16] = Postemergence, 2000 g ai/ha, 0 to 100 scale, 0 no effect, 100 complete control
[17] = Preemergence, 2000 g ai/ha, visual rating, 0 to 100 scale (0 no effect, 100 complete control)
[18] = preemergence, 500 g ai/ha, visual injury, 0 to 100 scale (0 no effect, 100 complete control)
[19] = 125 g ai/ha, 0 = no effect, 100 = complete control, preemergence
[20] = 500 g ai/ha, visual rating 0-100, 0 no effect, 100 complete control, preemergence

With CCc1nc(C(C)(C)C)sc1C(=O)Nc1cccc(C(=O)NCC(C)C)c1 [Compound 211] the “Barnyardgrass plant response rating” value (barnyardgrass [1]; [15]) was 25, the “Plant response rating, Barnyardgrass” value (barnyardgrass [1]; [16]) was 55 and the “Barnyardgrass plant response rating” value (barnyardgrass [1]; [17]) was 70. The “Barnyardgrass plant response rating” value (barnyardgrass [1]; [18]) was 55, the “Crabgrass, Large plant response rating” value (large crabgrass [2]; [15]) was 20 and the “Plant response rating, Crabgrass, Large” value (large crabgrass [2]; [16]) was 30. The “Crabgrass, Large plant response rating” value (large crabgrass [2]; [17]) was 85, the “Crabgrass, Large plant response rating” value (large crabgrass [2]; [18]) was 75 and the “Foxtail, Giant plant response rating” value (giant foxtail [3]; [15]) was 20. For the same compound, the “Plant response rating, Foxtail, Giant” value (giant foxtail [3]; [16]) was 30, the “Foxtail, Giant plant response rating” value (giant foxtail [3]; [17]) was 70 and the “Foxtail, Giant plant response rating” value (giant foxtail [3]; [18]) was 45. The “Morningglory plant response rating” value (morningglory [4]; [15]) was 20, the “Plant response rating, Morningglory” value (morningglory [4]; [16]) was 15 and the “Morningglory plant response rating” value (morningglory [4]; [17]) was 25. For the same compound, the “Morningglory plant response rating” value (morningglory [4]; [18]) was 10, the “Pigweed plant response rating” value (redroot pigweed; [15]) was 25 and the “Plant response rating, Pigweed” value (redroot pigweed; [16]) was 25. For the same compound, the “Pigweed plant response rating” value (redroot pigweed; [17]) was 40, the “Pigweed plant response rating” value (redroot pigweed; [18]) was 30 and the “Velvetleaf plant response rating” value (velvetleaf [5]; [15]) was 15. The “Plant response rating, Velvetleaf” value (velvetleaf [5]; [16]) was 25, the “Velvetleaf plant response rating” value (velvetleaf [5]; [17]) was 65 and the “Velvetleaf plant response rating” value (velvetleaf [5]; [18]) was 25. The “Barnyardgrass plant response rating (0 to 100 scale)” value (barnyardgrass [6]; [19]) was 10, the “Plant response rating, Barnyardgrass” value (barnyardgrass [6]; [20]) was 50 and the “Barnyardgrass plant response rating” value (barnyardgrass [6]; 125 g ai/ha) was 10. For the same compound, the “Barnyardgrass plant response rating” value (barnyardgrass [6]; 500 g ai/ha) was 10, the “Surinam Grass plant response rating (0 to 100 scale)” value (Surinam grass; [19]) was 0 and the “Plant response rating, Surinam Grass” value (Surinam grass; [20]) was 30. For the same compound, the “Surinam Grass plant response rating” value (Surinam grass; 125 g ai/ha) was 10, the “Surinam Grass plant response rating” value (Surinam grass; 500 g ai/ha) was 10 and the “Cocklebur plant response rating (0 to 100 scale)” value (cocklebur; [19]) was 0. For the same compound, the “Plant response rating, Cocklebur” value (cocklebur; [20]) was 0, the “Cocklebur plant response rating” value (cocklebur; 125 g ai/ha) was 30 and the “Cocklebur plant response rating” value (cocklebur; 500 g ai/ha) was 60. The “Corn plant response rating (0 to 100 scale)” value (corn; [19]) was 0, the “Plant response rating, Corn” value (corn; [20]) was 10 and the “Corn plant response rating” value (corn; 125 g ai/ha) was 10. For the same compound, the “Corn plant response rating” value (corn; 500 g ai/ha) was 10, the “Crabgrass, Large plant response rating (0 to 100 scale)” value (large crabgrass [7]; [19]) was 10 and the “Plant response rating, Crabgrass, Large” value (large crabgrass [7]; [20]) was 70. The “Crabgrass, Large plant response rating” value (large crabgrass [7]; 125 g ai/ha) was 10, the “Crabgrass, Large plant response rating” value (large crabgrass [7]; 500 g ai/ha) was 10 and the “Foxtail, Giant plant response rating (0 to 100 scale)” value (giant foxtail [8]; [19]) was 10. The “Plant response rating, Foxtail, Giant” value (giant foxtail [8]; [20]) was 50, the “Foxtail, Giant plant response rating” value (giant foxtail [8]; 125 g ai/ha) was 10 and the “Foxtail, Giant plant response rating” value (giant foxtail [8]; 500 g ai/ha) was 10. The “Lambsquarters plant response rating (0 to 100 scale)” value (lambsquarters; [19]) was 10, the “Plant response rating, Lambsquarters” value (lambsquarters; [20]) was 80 and the “Lambsquarters plant response rating” value (lambsquarters; 125 g ai/ha) was 60. For the same compound, the “Lambsquarters plant response rating” value (lambsquarters; 500 g ai/ha) was 70, the “Morningglory plant response rating (0 to 100 scale)” value (morningglory [9]; [19]) was 0 and the “Plant response rating, Morningglory” value (morningglory [9]; [20]) was 10. The “Morningglory plant response rating” value (morningglory [9]; 125 g ai/ha) was 10, the “Morningglory plant response rating” value (morningglory [9]; 500 g ai/ha) was 30 and the “Pigweed plant response rating (0 to 100 scale)” value (pigweed; [19]) was 0. For the same compound, the “Plant response rating, Pigweed” value (pigweed; [20]) was 30, the “Pigweed plant response rating” value (pigweed; 125 g ai/ha) was 10 and the “Pigweed plant response rating” value (pigweed; 500 g ai/ha) was 30. The “Rice plant response rating (0 to 100 scale)” value (rice [10]; 125 g ai/ha, 0 = no effect, 100 = complete control) was 0, the “Plant response rating, Rice” value (rice [10]; 500 g ai/ha, visual rating 0-100, 0 no effect, 100 complete control) was 10 and the “Velvetleaf plant response rating (0 to 100 scale)” value (velvetleaf [11]; [19]) was 0. For the same compound, the “Plant response rating, Velvetleaf” value (velvetleaf [11]; [20]) was 10, the “Velvetleaf plant response rating” value (velvetleaf [11]; 125 g ai/ha) was 30 and the “Velvetleaf plant response rating” value (velvetleaf [11]; 500 g ai/ha) was 30. For the same compound, the “Blackgrass plant response rating” value (blackgrass; 125 g ai/ha) was 10, the “Blackgrass plant response rating” value (blackgrass; 500 g ai/ha) was 10 and the “Wheat plant response rating” value (wheat; 125 g ai/ha) was 10. The “Wheat plant response rating” value (wheat; 500 g ai/ha) was 10, the “Oat, Wild plant response rating” value (wild oat; 125 g ai/ha) was 10 and the “Oat, Wild plant response rating” value (wild oat; 500 g ai/ha) was 10. For the same compound, the “Rice plant response rating” value (rice [12]) was 20, the “Sedge, Umbrella plant response rating” value [13] was 30 and the “Ducksalad plant response rating” value (ducksalad) was 80. For the same compound, the “Barnyardgrass plant response rating” value (barnyardgrass [14]) was 20.
